Assays:
[1] = Visual evaluation of the alkalizers' lightening power; conditions: conclusion from Tables 5 and 6, comparison of alkalizers
Description: The examples above show hair lightening and hair coloring compositions. […]

[2] = Minolta L.A.B. (CIELAB) evaluation of lightening power on hair tresses; conditions: FIG. 1
Protocol: In all examples, the ΔE values were measured using a L.A.B. reading using the color measurement method of CIELAB which is used to mathematically compute and compare the color of hair tresses. The method was developed by CIE using L*, a* and b* values. L* represents the difference between light (where L*=100) and dark (where L* is 0); a represents the difference between green ([…]) and red (+a*); and b* represents the difference between yellow (+b*) and blue (−b*). This system then maps true color to a place on a three dimensional graph wherein the variables are calculated by the changes in their values and those changes are used to compute the ΔE value which is a change in color. Such a system is commercially known and used in the art.

| SMILES | lift on the darker hair [1] | lift when added to ammonium hydroxide and MEA, versus the same component alone [2] |
| --- | --- | --- |
| N [ammonium hydroxide] | highest amount of lift | – |
| O=[Si]([O-])[O-].[Na+].[Na+] [sodium metasilicate] | – | synergistic lift |
